Laboratory results as given in ChEMBL document CHEMBL5352456, “Isocyanides in med chem: A scaffold hopping approach for the identification of novel 4-isocyanophenylamides as potent antibacterial agents against methicillin-resistant Staphylococcusaureus” (Eur J Med Chem, 2023).

Assays:
Assay type in all cases: functional
Settings in all cases: time 16-20 hrs
Staphylococcus aureus [1] = assay: Antibacterial activity against Staphylococcus aureus ATCC 6538 assessed as reduction in microbial growth measured for 16 to 20 hrs by microdilution assay
Staphylococcus aureus [2] = assay: Antibacterial activity against Staphylococcus aureus ATCC 25923 assessed as reduction in microbial growth measured for 16 to 20 hrs by microdilution assay
Staphylococcus aureus [3] = assay: Antibacterial activity against Staphylococcus aureus ATCC 29213 assessed as reduction in microbial growth measured for 16 to 20 hrs by microdilution assay
Staphylococcus aureus [4] = assay: Antibacterial activity against methicillin-resistant Staphylococcus aureus ATCC 43300 assessed as reduction in microbial growth measured for 16 to 20 hrs by microdilution assay
Staphylococcus aureus [5] = assay: Antibacterial activity against methicillin-resistant Staphylococcus aureus ATCC 33592 assessed as reduction in microbial growth measured for 16 to 20 hrs by microdilution assay
[6] = test system: Staphylococcus epidermidis; assay: Antibacterial activity against Staphylococcus epidermidis ATCC 35984 assessed as reduction in microbial growth measured for 16 to 20 hrs by microdilution assay
[7] = test system: Staphylococcus epidermidis; assay: Antibacterial activity against Staphylococcus epidermidis ATCC 12228 assessed as reduction in microbial growth measured for 16 to 20 hrs by microdilution assay
[8] = test system: Staphylococcus epidermidis; assay: Antibacterial activity against Staphylococcus epidermidis ATCC 49134 assessed as reduction in microbial growth measured for 16 to 20 hrs by microdilution assay
Klebsiella pneumoniae = assay: Antibacterial activity against Klebsiella pneumoniae ATCC 700603 assessed as inhibition of bacterial growth measured for 16 to 20 hrs by microdilution assay
Pseudomonas aeruginosa = assay: Antibacterial activity against Pseudomonas aeruginosa ATCC 10145 assessed as inhibition of bacterial growth measured for 16 to 20 hrs by microdilution assay
Escherichia coli = assay: Antibacterial activity against Escherichia coli ATCC 25922 assessed as inhibition of bacterial growth measured for 16 to 20 hrs by microdilution assay

| Structure (SMILES) | MIC (Staphylococcus aureus [1]) | MIC (Staphylococcus aureus [2]) | MIC (Staphylococcus aureus [3]) | MIC (Klebsiella pneumoniae) | MIC (Pseudomonas aeruginosa) | MIC (Escherichia coli) | MIC (Staphylococcus aureus [4]) | MIC (Staphylococcus aureus [5]) | MIC [6] | MIC [7] | MIC [8] |
| --- | --- | --- | --- | --- | --- | --- | --- | --- | --- | --- | --- |
| [C-]#[N+]c1ccc(NC(=O)Cc2ccc(Cl)cc2)cc1 | 8 µM | 2 µM | 8 µM | ≥ 64 µM | ≥ 64 µM | ≥ 64 µM | 4 µM | 8 µM | 0.25 µM | 0.5 µM | 0.25 µM |
| [C-]#[N+]c1ccc(NC(=O)c2ccccc2)cc1 | > 8 µM | > 8 µM | > 8 µM | ≥ 64 µM | ≥ 64 µM | ≥ 64 µM | – | – | – | – | – |
| CN(C)[C@@H]1C(O)=C(C(N)=O)C(=O)[C@@]2(O)C(O)=C3C(=O)c4c(O)cccc4[C@@](C)(O)[C@H]3C[C@@H]12 [TETRACYCLINE] | 1.13 µM | 1.13 µM | 1.13 µM | – | – | – | 1.13 µM | > 4.52 µM | 4.52 µM | > 4.52 µM | 0.27 µM |
| [C-]#[N+]c1ccc(NC(=O)Cc2cccc([N+](=O)[O-])c2)cc1 | 8 µM | 4 µM | 8 µM | ≥ 64 µM | ≥ 64 µM | ≥ 64 µM | 4 µM | 4 µM | 4 µM | 4 µM | 2 µM |
| [C-]#[N+]c1ccc(NC(=O)CCCCCCCC)cc1 | 8 µM | 2 µM | 8 µM | ≥ 64 µM | ≥ 64 µM | ≥ 64 µM | 4 µM | 8 µM | 0.5 µM | 1 µM | 0.5 µM |
| [C-]#[N+]c1ccc(C(=O)Nc2ccccc2)cc1 | > 8 µM | > 8 µM | > 8 µM | ≥ 64 µM | ≥ 64 µM | ≥ 64 µM | – | – | – | – | – |
| [C-]#[N+]c1ccc(NC(=O)Cc2cccc(OC)c2)cc1 | 8 µM | 4 µM | 8 µM | ≥ 64 µM | ≥ 64 µM | ≥ 64 µM | 8 µM | 8 µM | 2 µM | 2 µM | 2 µM |
| [C-]#[N+]c1ccc(NC(=O)CCc2ccccc2)cc1 | 8 µM | 4 µM | 8 µM | ≥ 64 µM | ≥ 64 µM | ≥ 64 µM | 8 µM | > 8 µM | 1 µM | 2 µM | 2 µM |
| [C-]#[N+]c1ccc(NC(=O)Cc2ccc(OC)cc2)cc1 | 8 µM | 4 µM | 8 µM | ≥ 64 µM | ≥ 64 µM | ≥ 64 µM | 8 µM | 8 µM | 2 µM | 2 µM | 2 µM |
| [C-]#[N+]c1ccc(NC(=O)Cc2ccc3c(c2)OCO3)cc1 | 8 µM | 4 µM | 8 µM | ≥ 64 µM | ≥ 64 µM | ≥ 64 µM | 8 µM | 8 µM | 1 µM | 1 µM | 1 µM |
| [C-]#[N+]c1ccc(NC(=O)CC2CCCCC2)cc1 | > 8 µM | > 8 µM | > 8 µM | ≥ 64 µM | ≥ 64 µM | ≥ 64 µM | – | – | – | – | – |
| N#Cc1ccc(NC(=O)Cc2ccccc2)cc1 | > 8 µM | > 8 µM | > 8 µM | ≥ 64 µM | ≥ 64 µM | ≥ 64 µM | – | – | – | – | – |
| [C-]#[N+]c1ccc(NC(=O)C(=O)c2ccccc2)cc1 | > 8 µM | > 8 µM | > 8 µM | ≥ 64 µM | ≥ 64 µM | ≥ 64 µM | – | – | – | – | – |
| [C-]#[N+]c1ccc(NC(=O)Cc2ccc([N+](=O)[O-])cc2)cc1 | 8 µM | 2 µM | 8 µM | ≥ 64 µM | ≥ 64 µM | ≥ 64 µM | 4 µM | 8 µM | 0.5 µM | 1 µM | 0.5 µM |
| [C-]#[N+]c1ccc(NC(=O)CCc2ccc([N+](=O)[O-])cc2)cc1 | > 8 µM | 4 µM | > 8 µM | ≥ 64 µM | ≥ 64 µM | ≥ 64 µM | 8 µM | > 8 µM | 1 µM | 2 µM | 2 µM |
| [C-]#[N+]c1ccc(NC(=O)CCc2ccc(Br)cc2)cc1 | 8 µM | 8 µM | 8 µM | ≥ 64 µM | ≥ 64 µM | ≥ 64 µM | 8 µM | 8 µM | 2 µM | 2 µM | 2 µM |
| [C-]#[N+]c1ccc(NC(=O)c2ccccc2C(F)(F)F)cc1 | > 8 µM | > 8 µM | > 8 µM | ≥ 64 µM | ≥ 64 µM | ≥ 64 µM | – | – | – | – | – |
| [C-]#[N+]c1ccc(NC(=O)Cc2cc(OC)c(OC)c(OC)c2)cc1 | > 8 µM | > 8 µM | > 8 µM | ≥ 64 µM | ≥ 64 µM | ≥ 64 µM | – | – | – | – | – |
| [C-]#[N+]c1ccc(NC(=O)CCCCC)cc1 | > 8 µM | 8 µM | > 8 µM | ≥ 64 µM | ≥ 64 µM | ≥ 64 µM | > 8 µM | > 8 µM | 1 µM | 1 µM | 1 µM |
| [C-]#[N+]c1ccc(NC(=O)Cc2ccccc2Cl)cc1 | > 8 µM | > 8 µM | > 8 µM | ≥ 64 µM | ≥ 64 µM | ≥ 64 µM | – | – | – | – | – |
| [C-]#[N+]c1ccc(NC(=O)Cc2cccc(C#N)c2)cc1 | 8 µM | 4 µM | 8 µM | ≥ 64 µM | ≥ 64 µM | ≥ 64 µM | 8 µM | 8 µM | 2 µM | 2 µM | 2 µM |
| [C-]#[N+]c1ccc(NC(=O)c2ccccc2[N+](=O)[O-])cc1 | > 8 µM | > 8 µM | > 8 µM | ≥ 64 µM | ≥ 64 µM | ≥ 64 µM | – | – | – | – | – |
| [C-]#[N+]c1ccc(NC(=O)c2cccnc2)cc1 | > 8 µM | > 8 µM | > 8 µM | ≥ 64 µM | ≥ 64 µM | ≥ 64 µM | – | – | – | – | – |
| [C-]#[N+]c1ccc(NC(=O)Cc2c[nH]c3ccccc23)cc1 | > 8 µM | > 8 µM | > 8 µM | ≥ 64 µM | ≥ 64 µM | ≥ 64 µM | – | – | – | – | – |
| [C-]#[N+]c1ccc(NC(=O)CCC2CCCC2)cc1 | 8 µM | 4 µM | 8 µM | ≥ 64 µM | ≥ 64 µM | ≥ 64 µM | 8 µM | 8 µM | 1 µM | 1 µM | 2 µM |

Second part, led by results:

| MIC (Staphylococcus aureus [1]) | MIC (Staphylococcus aureus [2]) | MIC (Staphylococcus aureus [3]) | MIC (Klebsiella pneumoniae) | MIC (Pseudomonas aeruginosa) | MIC (Escherichia coli) | Structure (SMILES) | MIC (Staphylococcus aureus [4]) | MIC (Staphylococcus aureus [5]) | MIC [6] | MIC [7] | MIC [8] |
| --- | --- | --- | --- | --- | --- | --- | --- | --- | --- | --- | --- |
| > 8 µM | > 8 µM | > 8 µM | ≥ 64 µM | ≥ 64 µM | ≥ 64 µM | [C-]#[N+]c1ccc(NC(=O)Cc2c(Cl)cccc2Cl)cc1 | – | – | – | – | – |
| > 8 µM | > 8 µM | > 8 µM | ≥ 64 µM | ≥ 64 µM | ≥ 64 µM | [C-]#[N+]c1ccc(NC(=O)Cc2ccccc2[N+](=O)[O-])cc1 | – | – | – | – | – |
| > 8 µM | > 8 µM | > 8 µM | ≥ 64 µM | ≥ 64 µM | ≥ 64 µM | [C-]#[N+]c1ccc(NC(=O)c2ccc(Br)cc2)cc1 | – | – | – | – | – |
| > 8 µM | > 8 µM | > 8 µM | ≥ 64 µM | ≥ 64 µM | ≥ 64 µM | [C-]#[N+]c1ccc(NC(=O)CCc2cccnc2)cc1 | – | – | – | – | – |
| > 8 µM | > 8 µM | > 8 µM | ≥ 64 µM | ≥ 64 µM | ≥ 64 µM | [C-]#[N+]c1ccc(NC(=O)CCc2cc(OC)c(OC)c(OC)c2)cc1 | – | – | – | – | – |
| > 8 µM | > 8 µM | > 8 µM | ≥ 64 µM | ≥ 64 µM | ≥ 64 µM | [C-]#[N+]c1ccc(NC(=O)Cc2ccncc2)cc1 | – | – | – | – | – |
| > 8 µM | > 8 µM | > 8 µM | ≥ 64 µM | ≥ 64 µM | ≥ 64 µM | [C-]#[N+]c1ccc(NC(=O)CC(C)C)cc1 | – | – | – | – | – |
| > 8 µM | > 8 µM | > 8 µM | ≥ 64 µM | ≥ 64 µM | ≥ 64 µM | [C-]#[N+]c1ccc(NC(=O)Cc2ccccc2OC)cc1 | – | – | – | – | – |
| > 8 µM | > 8 µM | > 8 µM | ≥ 64 µM | ≥ 64 µM | ≥ 64 µM | [C-]#[N+]c1ccc(NC(=O)c2ccc(C(=O)OC)cc2)cc1 | – | – | – | – | – |
| > 8 µM | > 8 µM | > 8 µM | ≥ 64 µM | ≥ 64 µM | ≥ 64 µM | [C-]#[N+]c1ccc(NC(=O)c2ccc(OC)cc2)cc1 | – | – | – | – | – |
| > 8 µM | > 8 µM | > 8 µM | ≥ 64 µM | ≥ 64 µM | ≥ 64 µM | N#Cc1ccc(NC(=O)COc2ccccc2)cc1 | – | – | – | – | – |
| > 8 µM | > 8 µM | > 8 µM | ≥ 64 µM | ≥ 64 µM | ≥ 64 µM | N#Cc1ccc(NC(=O)Cc2cccc(Cl)c2)cc1 | – | – | – | – | – |
